Tested on: Calu-6 subcutaneous xenografts
Experiment: subcutaneous Calu-6 xenograft with tumor-localized irradiation
Assay type: in vivo, mouse
Conditions: for mean tumor volume: NU5455 30 mg/kg oral single dose 30 min before 3.3 Gy
Experimental: Subcutaneous non–small cell lung cancer xenografts were generated in CD-1 nude or BALB/c nude mice using A549 and Calu-6 cells, respectively, as previously described ([53]). When tumors reached 100 mm^3, mice were randomized into 4 groups (n = 7–9 per group) to receive (a) vehicle (orally) 30 minutes before mock radiation, (b) NU5455 (30 mg/kg orally) 30 minutes before mock radiation, (c) targeted tumor radiation at a single dose of 3.3 or 10 Gy, or (d) NU5455 (30 mg/kg orally) 30 minutes before 3.3 Gy or 10 Gy targeted tumor radiation. For targeted irradiation of subcutaneous tumors, anesthetized mice were restrained in a lead-shielded container with only the tumor exposed, and x-ray radiation applied using an RS320 irradiation system (Gulmay Medical) at a dose rate of 1.82 Gy/min.
Establishment of subcutaneous NSCLC xenograft models
NSCLC subcutaneous xenografts were generated as previously described ( 53). Briefly, 6-8 week-old female BALB/c nude or CD-1 nude mice (Charles River Laboratories) were anaesthetized with 2% isoflurane (Zoetis), and 5 x 10^6 Calu-6 or A549 cells in 50% Matrigel (BD Biosciences), respectively, were subcutaneously injected into a single site on the back of the mouse. Mouse weights and tumor volumes (1/2 x length x width x depth) were measured three times a week.
Targeted radiotherapy in subcutaneous and orthotopic NSCLC xenograft models When subcutaneous xenografts reached 100 mm3, mice were randomized into four groups (n = 7 - 11/group): (i) N-Methyl-2-pyrrolidone (NMP): 30% Encapsin : PEG400 (1:6:3 v/v/v) vehicle p.o. 30 minutes prior to mock radiation. (ii) NU5455 (30 mg/kg p.o.) 30 minutes prior to mock radiation. (iii) Targeted tumor radiation at a single dose of 3.3 or 10 Gy. (iv) NU5455 (30 mg/kg p.o.) 30 minutes prior to 3.3 Gy or 10 Gy targeted tumor radiation. For targeted irradiation of subcutaneous tumors, anaesthetized mice were restrained in a lead -shielded container with only the tumor exposed. X -ray radiation was applied using an RS320 irradiation system ( Gulmay Medical) at a dose rate of 1.82 Gy/minute. Three animals from each group were humanely killed at 5 and/or 24 hours after irradiation, and the tumors processed for immunohistochemistry (IHC). […]
Immunohistochemistry in lung tumor xenografts and normal lung tissue
Tissues were fixed in 4% paraformaldehyde (PFA) and paraffin -embedded. Sections were stained using primary antibodies against γH2AX (JBW301, 1:1000, Millipore #05-636), 53BP1 (1:500, Cell Signaling #4937), and cleaved caspase 3 (CC3, 1:600, Cell Signaling #9661) and the EnVision G2 Doublestain System (Dako #K5361), according to the manufacturer’s instructions. One tissue section from each of 3 mice per group was examined, and the whole

## CN(C(=O)CN1CCOCC1)c1ccc2sc3c(-c4cccc5c(=O)cc(N6CC7CCC(C6)O7)oc45)cccc3c2c1 [NU5455]
NU5455 30 mg/kg oral + 10 Gy
  adverse effect or impact on body weight: without any adverse effect or impact on body weight
  antitumor response: regression of Calu-6 tumors was induced
Day 0
  mean tumor volume: 104 mm^3
Day 6
  mean tumor volume: 102 mm^3
Day 38, NU5455 30 mg/kg oral + 10 Gy
  mice having no evidence of tumor at the end of the experiment: 3 of 6
tumor, 5 hours after 3.3 Gy, 30 mg/kg oral
  radiation-induced γH2AX foci remaining, fold greater with concomitant NU5455: 3.0 fold
